Data: ChEMBL document CHEMBL4610126, “EEDi-5285: An Exceptionally Potent, Efficacious, and Orally Active Small-Molecule Inhibitor of Embryonic Ectoderm Development” (J Med Chem, 2020)

Key:
[1] = Plasma concentration in mouse at 25 mg/kg, po after 3 hrs by LC-MS/MS analysis; type: ADME, organism-based
KARPAS-422 [2] = experiment: Antitumor activity against human KARPAS422 cells xenografted in SCID mouse assessed as induction of tumor regression at 50 mg/kg, po dosed daily for 28 days relative to control; type: functional
KARPAS-422 [3] = experiment: Growth inhibition of human KARPAS422 cells incubated for 7 days by WST8 assay; conditions: KARPAS-422, 168 h
[4] = Plasma clearance in mouse at 2 mg/kg, iv by LC-MS/MS analysis; type: ADME, organism-based
[5] = Plasma concentration in mouse at 25 mg/kg, po after 6 hrs by LC-MS/MS analysis; type: ADME, organism-based
[6] = Plasma concentration in mouse at 25 mg/kg, po after 1 hr by LC-MS/MS analysis; type: ADME, organism-based
[7] = Volume of distribution at steady state in mouse at 2 mg/kg, iv by LC-MS/MS analysis; type: ADME, organism-based; conditions: in vivo, read-out: Vdss
Polycomb protein EED = Polycomb protein EED (Homo sapiens, UniProt O75530)
Sequence of Polycomb protein EED (O75530 whole entry): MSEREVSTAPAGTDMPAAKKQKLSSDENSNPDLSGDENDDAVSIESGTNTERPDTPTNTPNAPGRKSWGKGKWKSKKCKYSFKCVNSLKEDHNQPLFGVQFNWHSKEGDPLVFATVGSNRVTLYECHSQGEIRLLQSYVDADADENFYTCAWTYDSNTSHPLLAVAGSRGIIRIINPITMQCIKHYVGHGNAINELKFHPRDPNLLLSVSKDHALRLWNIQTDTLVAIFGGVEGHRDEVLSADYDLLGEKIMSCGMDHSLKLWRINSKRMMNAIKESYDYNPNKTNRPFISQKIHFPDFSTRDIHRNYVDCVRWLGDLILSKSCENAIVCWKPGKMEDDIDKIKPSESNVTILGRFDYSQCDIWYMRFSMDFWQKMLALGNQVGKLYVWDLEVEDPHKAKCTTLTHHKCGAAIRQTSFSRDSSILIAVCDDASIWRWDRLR

Pfeiffer [8] = experiment: Growth inhibition of human Pfeiffer cells incubated for 7 days by WST8 assay; type: functional, cell-based; conditions: 168 h
[9] = AUC (0 to t) in mouse at 2 mg/kg, iv by LC-MS/MS analysis; type: ADME, organism-based; conditions: in vivo
[10] = Toxicity in SCID mouse xenografted with human KARPAS422 cells assessed as induction of body weight loss at 50 to 100 mg/kg, po dosed daily for 28 days; type: organism-based, KARPAS-422; conditions: in vivo, 672 h
KARPAS-422 [11] = experiment: Antitumor activity against human KARPAS422 cells xenografted in SCID mouse assessed as induction of tumor regression at 100 mg/kg, po dosed daily for 28 days relative to control; type: functional
[12] = Cmax in mouse at 10 mg/kg, po by LC-MS/MS analysis; type: ADME, organism-based; design: dose 10 mg/kg, route oral; conditions: in vivo
[13] = AUC (0 to t) in mouse at 10 mg/kg, po by LC-MS/MS analysis; type: ADME, organism-based; conditions: in vivo
KARPAS-422 [14] = experiment: Antitumor activity against human KARPAS422 cells xenografted in mouse assessed as inhibition of tumor growth at 100 mg/kg, po dosed twice daily for 36 days; type: functional; conditions: KARPAS-422, po, 864 h, read-out: TGI
[15] = Terminal half life in mouse at 10 mg/kg, po by LC-MS/MS analysis; type: ADME, organism-based; conditions: in vivo, read-out: beta t1/2 (converted)
Pfeiffer [16] = experiment: Growth inhibition of human Pfeiffer cells incubated for 10 days by WST8 assay; type: functional, cell-based; conditions: 240 h

Structure (SMILES)	concentration at 3 h [1] [ng/mL]	IC50 (KARPAS-422 [3]) [nM]	concentration at 6 h [5] [ng/mL]	concentration at 1 h [6] [ng/mL]	IC50 (Polycomb protein EED) [nM]	IC50 (Pfeiffer [8]) [nM]	further results
CS(=O)(=O)c1ncn2c(NCc3c(F)ccc4c3CCO4)ncc(-c3ccc(C4CC4)nc3)c12	608	0.5	452	1100	0.2	0.02	Activity (KARPAS-422 [2]): 100%; clearance [4]: 20 mL/min/kg; Vd [7]: 1.4 L/kg; AUC(0-t) [9]: 1700 ng·h/mL; Activity [10]: Non-Toxic; Activity (KARPAS-422 [11]): 100%; Cmax [12]: 1800 ng/mL; AUC(0-t) [13]: 6000 ng·h/mL
CCOC(=O)c1ncn2c(NCc3cccc4c3OCO4)ncc(-c3ccccc3)c12		300			40		
CNC(=O)c1ncn2c(NCc3c(F)ccc4c3CCO4)ncc(-c3ccccc3)c12		60					
CC(=O)N1CCC(c2cnc(NCc3c(F)ccc4c3CCO4)n3cnc(S(C)(=O)=O)c23)CC1		6.5			2.8		
CCOC(=O)c1ncn2c(NCc3ccc(OC)cc3F)ncc(-c3ccccc3)c12		4300					
CS(=O)(=O)c1ccc(-c2cnc(NCc3c(F)ccc4c3CCO4)n3cnc(S(C)(=O)=O)c23)cc1	171	1.4	109	598		0.02	
CS(=O)(=O)c1ccc(-c2cnc(NCc3ccco3)n3cnnc23)cc1		180			17.6		inhibition in vivo at 100 mg/kg (KARPAS-422 [14]): 85%
Cc1nc(C(F)(F)F)ccc1-c1cnc(NCc2c(F)ccc3c2CCO3)n2cnc(S(C)(=O)=O)c12	794	1.7	415	896	0.4	0.05	
CS(=O)(=O)c1ncn2c(NCc3c(F)ccc4c3CCO4)ncc(-c3ccc(C(F)F)nc3)c12	18	2.4	< 10	242	0.2	0.02	
CCOC(=O)c1ncn2c(NCc3ccco3)ncc(-c3ccccc3)c12		1000					
CNC(=O)c1ncn2c(NCc3ccco3)ncc(-c3ccccc3)c12		2400					
CS(=O)(=O)c1ncn2c(NCc3c(F)ccc4c3CCO4)ncc(-c3ccc(C(F)(F)F)nc3)c12	189	1.7	139	468	0.3	0.03	
CS(=O)(=O)c1ncn2c(NCc3c(F)ccc4c3CCO4)ncc(-c3ccccc3)c12		2.2					
CS(=O)(=O)c1ccc(-c2cnc(NCc3c(F)ccc4c3CCO4)n3cnc(S(C)(=O)=O)c23)cn1	36	2.9	41	351		0.5	
Cc1ccc(-c2cnc(NCc3c(F)ccc4c3CCO4)n3cnc(S(C)(=O)=O)c23)c(C)n1	754		485	2480	0.5		Activity (KARPAS-422 [2]): 100%; clearance [4]: 40 mL/min/kg; Vd [7]: 1.6 L/kg; half-life [15]: 2.1 h; AUC(0-t) [9]: 800 ng·h/mL; Activity [10]: Non-Toxic; Activity (KARPAS-422 [11]): 100%; Cmax [12]: 1300 ng/mL; AUC(0-t) [13]: 2600 ng·h/mL
CN(C)[C@H]1CN(C2CCc3cccc(F)c32)C[C@@H]1c1ccc(N2CCN(S(C)(=O)=O)CC2)cc1 (some centres undefined)							IC50 (Pfeiffer [16]): 69 nM
Cc1ncccc1-c1cnc(NCc2c(F)ccc3c2CCO3)n2cnc(S(C)(=O)=O)c12	194	3.6	91	488		0.08	

Structure (SMILES)	concentration at 3 h [1] [ng/mL]	IC50 (KARPAS-422 [3]) [nM]	concentration at 6 h [5] [ng/mL]	concentration at 1 h [6] [ng/mL]	IC50 (Polycomb protein EED) [nM]	IC50 (Pfeiffer [8]) [nM]	further results
CS(=O)(=O)c1ncn2c(NCc3c(F)ccc4c3CCO4)ncc(-c3ccc(F)cc3)c12	< 10	5.2	< 10	43	0.4	0.12	
Cc1cc(S(C)(=O)=O)ccc1-c1cnc(NCc2c(F)ccc3c2CCO3)n2cnc(S(C)(=O)=O)c12	279	1.6	98	591	0.9	0.02	
CS(=O)(=O)c1ncn2c(NCc3c(F)ccc4c3CCO4)ncc(C3CCOCC3)c12		52			12		
Cc1ccc(-c2cnc(NCc3c(F)ccc4c3CCO4)n3cnc(S(C)(=O)=O)c23)cn1	94	1.4	29	340		0.03	
CCOC(=O)c1ncn2c(NCc3cccc4c3CCO4)ncc(-c3ccccc3)c12		210					
CCOC(=O)c1ncn2c(NCc3cc(OC)ccc3F)ncc(-c3ccccc3)c12		2700					
CCOC(=O)c1ncn2c(NCc3c(F)cccc3OC)ncc(-c3ccccc3)c12		300			50		
CCOC(=O)c1ncn2c(NCc3ccccc3)ncc(-c3ccccc3)c12		3000					
CS(=O)(=O)c1ncn2c(NCc3c(F)ccc4c3CCO4)ncc(C3CCS(=O)(=O)CC3)c12		29			7.8		
Fc1ccc2c(c1CNc1ncc(-c3ccccc3)c3c(C(F)(F)F)ncn13)CCO2		120					
CS(=O)(=O)c1ncn2c(NCc3c(F)ccc4c3CCO4)ncc(C3CCN(S(C)(=O)=O)CC3)c12		15.3			7.9		
CCN1CCC(c2cnc(NCc3c(F)ccc4c3CCO4)n3cnc(S(C)(=O)=O)c23)CC1		126			23		
Cn1cc(-c2cnc(NCc3c(F)ccc4c3CCO4)n3cnc(S(C)(=O)=O)c23)cn1	50	3.1	56	468	0.5	0.27	
CP(C)(=O)c1ncn2c(NCc3c(F)ccc4c3CCO4)ncc(-c3ccccc3)c12		8.1					
CCOC(=O)c1ncn2c(NCc3cccc4c3OCC4)ncc(-c3ccccc3)c12		6300					
CS(=O)(=O)c1ncn2c(NCc3c(F)ccc4c3CCO4)ncc(C3CCN(S(=O)(=O)C4CC4)CC3)c12		8.2			3.1		
